“And” between values parts separate entries of the source, which are not always exact repeats. Equal entries are not always repeated. Where two headings read alike, the source gives them in different places.
Legend:
Format in all cases: binding
PCAF Brd [1] = target: T1, PCAF Brd (Homo sapiens, UniProt Q92831); assay: Differential scanning fluorimetry (DSF), PCAF Brd; settings: compound concentration 10 μM
T1 construct: Human bromodomains were cloned, expressed and purified as previously described; made in house
T1 sequence (Q92831 723-827 limits assumed): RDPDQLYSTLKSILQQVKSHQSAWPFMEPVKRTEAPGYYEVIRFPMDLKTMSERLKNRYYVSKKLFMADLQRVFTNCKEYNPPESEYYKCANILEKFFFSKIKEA
Experimental: (§1) Protein Expression and Purification
(§2) Human bromodomains were cloned, expressed and purified as previously described.[1]
(§3) Differential Scanning Fluorimetry (DSF)
(§4) Thermal melting points were recorded using an Mx3005p Real Time PCR Machine (Stratagene).
(§5) Subject proteins were buffered in 10 mM HEPES at pH 7.5, 500 mM NaCl and assayed in a 96-well […]
(§6) plate at a final concentration of 2 μM in 20 μL volume. Compounds were then added to a final […]
(§7) concentration of 10 μM. SPYRO Orange (Molecular Probes) was used as a fluorescent probe at a […]
(§8) dilution of 1:1000. Excitation and emission filters for the SPYRO-Orange dye were set to 465 nm and […]
(§9) 590 nm, respectively. The temperature was raised with a step of 3 °C/min from 25 °C to 96 °C and […]
(§10) fluorescence readings were taken at each interval. Data was analysed as previously described.[2]
(§11) Bromodomain affinity selectivity panel of (S)-11
(§12) Supplemental Figure 1. DSF Selectivity panel of (S)-11 against 48 human Bromodomains. […]
(§13) ┼Mean ΔTm ± SEM (number of measurements= 2). Compound concentration: 10 μM […]
(§14) (1 picture or pasted object on this page, not shown here)

GCN5L2 = target: T2, GCN5L2 (Homo sapiens, UniProt Q92830); assay: Differential scanning fluorimetry (DSF), GCN5 (GCN5L2) Brd; settings: compound 10 μM; for ΔTm at 10 µM: read-out: GCN5L2 ΔTm (°C) (DSF)
T2 construct: made in house
T2 sequence (Q92830 728-832 limits assumed): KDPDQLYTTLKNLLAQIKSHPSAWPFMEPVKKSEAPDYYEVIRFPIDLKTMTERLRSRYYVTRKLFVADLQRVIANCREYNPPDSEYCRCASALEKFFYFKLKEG
Experimental: as §1, §2, §3, §4, §5, §6, §7, §8, §9, §10, §11, §12, §13, §14

PCAF Brd [2] = target: T1, PCAF Brd; assay: Isothermal titration calorimetry (ITC), PCAF Brd
Experimental: Isothermal Titration Calorimetry (ITC)
Experiments were carried out on a Nano-ITC Standard Volume Instrument (TA Instruments). All experiments were carried out at 25 °C in 20 mM HEPES pH 7.5, 150 mM NaCl, 0.5 mM TCEP and 5% glycerol. Protein solutions were buffer exchanged by gel filtration. The titrations were conducted using an initial injection of 2 μL followed by 32 injections of 8 μL. Background dilution heat was substracted from each experiment. Thermodynamic parameters were calculated using ΔG = ΔH-T ΔS = -RTlnKB , where KD = 1/KB. ΔG, ΔH and ΔS are changes in free energy, enathalpy and entropy resepectively. Independent single site binding models were employed in data analysis.
Supplemental Figure 3. ITC trace of D-Moses and PCAF Brd […]

[3] = Table 1, read-out: K D [μM] (ITC) PCAF Brd
[4] = Supplemental Table 3, compound concentration 30 μM, protein concentration 280-320 μM, read-out: PCAF KD (μM) (ITC)

| Structure (SMILES) | ΔT m [°C] PCAF (DSF) (PCAF Brd [1]) | ΔT m [°C] PCAF (DSF) (PCAF Brd [1]; listed as (S)-17) [°C] | ΔTm at 10 µM (GCN5L2) [°C] | Kd (PCAF Brd [2]; [3]) [µM] | Kd (PCAF Brd [2]; [4]) [µM] | GCN5L2 ΔTm (°C) (DSF) (GCN5L2) | Kd (PCAF Brd [2]; Table 2, read-out: K D (nM) (ITC) PCAF Brd) [µM] |
| --- | --- | --- | --- | --- | --- | --- | --- |
| C[C@@H](CN(C)C)Nc1nn2c(C(F)(F)F)nnc2c2ccccc12 [Compound (S)‐17] | 0.65 °C | 0.7 | 0.2 | > 30 | – | – | – |
| CCN(CC)CC(C)Nc1nn2c(C)nnc2c2ccccc12 (centres unmarked) [Compound 14] | 0 °C | – | 0 | > 30 | – | – | – |
| CN(C)[C@H]1CCCC[C@@H]1Nc1nn2c(C(F)(F)F)nnc2c2ccccc12 [Compound 83] | 0.8 °C | – | 0 | – | > 30 | – | – |
| Cc1nnc2c3ccccc3c(NC(CO)c3ccccc3)nn12 (centres unmarked) [Compound 51] | 1.0 °C | – | 0 | – | – | – | – |
| Cc1nnc2c3ccccc3c(NCC3CCCOC3)nn12 (centres unmarked) [Compound 99] | 3.8 °C | – | 1.5 | – | – | – | – |
| CCN1CCCCC1CNc1nn2c(C)nnc2c2ccccc12 (centres unmarked) [Compound 63] | 0.2 °C | – | 0 | – | – | – | – |
| Cc1nnc2c3ccccc3c(NC(C)c3ccccn3)nn12 (centres unmarked) [Compound 71] | – | – | – | – | 2.3 | – | – |
| Cc1nnc2c3ccccc3c(N3CCCC(N(C)C)C3)nn12 (centres unmarked) [Compound 75] | 0.4 °C | – | 0.2 | – | > 30 | – | – |
| Cc1nnc2c3ccccc3c(N3CCC(N(C)C)C3)nn12 (centres unmarked) [Compound 68] | 0.8 °C | – | – | – | > 30 | 0.1 | – |
| Cc1nnc2c3ccccc3c(N[C@@H]3CCC[C@H]3N(C)C)nn12 [Compound 67] | 0.7 °C | – | 0.3 | – | 0.321 | – | – |
| Cc1nnc2c3ccccc3c(N[C@H]3C[C@@H]4CC[C@H]3C4)nn12 [Compound 61] | 0.5 °C | – | – | – | – | 0 | – |
| Cc1nnc2c3ccccc3c(N[C@@H](C)[C@H](c3ccc(Cl)cc3)N(C)C)nn12 [Compound 42] | 6.2 °C | – | 2.7 | – | – | – | 0.223 ± 0.078 |
| COc1cccc(N2CC(Nc3nn4c(C)nnc4c4ccccc34)CC2=O)c1 (centres unmarked) [Compound 57] | 0.4 °C | – | – | – | > 30 | 0.1 | – |
| Cc1nnc2c3ccccc3c(N3CCN4CCCCC4C3)nn12 (centres unmarked) [Compound 73] | 0.5 °C | – | – | – | > 30 | 0.2 | – |
| Cc1nnc2c3ccccc3c(NC(CC(C)C)CN(C)C)nn12 (centres unmarked) [Compound 13] | 0.9 °C and 0.85 °C | – | 1.1 | > 30 | – | – | – |
| Cc1nnc2c3ccccc3c(NCC(C)N(C)C)nn12 (centres unmarked) [Compound 15] | 4.6 °C | – | 1 | 7.3 ± 1.1 | – | – | – |
| Cc1nnc2c3ccccc3c(NCC(c3ccccc3)N(C)C)nn12 (centres unmarked) [Compound 10] | 1.7 °C | – | – | 1 | – | – | – |
| Cc1nnc2c3ccccc3c(NCCN3CCN(C)CC3)nn12 [Compound 69] | 0.9 °C | – | 0 | – | > 30 | – | – |
| CCC(CN(C)C)Nc1nn2c(C(F)(F)F)nnc2c2ccccc12 (centres unmarked) [Compound 88] | 0.4 °C | – | – | – | > 30 | 0.1 | – |
| Cc1nnc2c3ccccc3c(NC3CCCN(C)C3=O)nn12 (centres unmarked) [Compound 50] | 1.1 °C | – | 0.1 | – | – | – | – |
| CC(=O)O.Cc1nnc2c3ccccc3c(NCCN3CCCC3)nn12 [Compound 59] | 3.7 °C | – | – | – | 4.3 | 0.7 | – |
| Cc1nnc2c3ccccc3c(NCC3COCCN3C)nn12 (centres unmarked) [Compound 58] | 2.7 °C | – | 0.4 | – | – | – | – |
| Cc1nnc2c3ccccc3c(NCCCN(C)C)nn12 [Compound 8] | – | – | – | > 30 | – | – | – |
